Measurements reported in patent US5496841A, “Anti-neoplastic, anti-viral and ribonucleotide reductase activity affecting pharmaceutical compositions and method of treatment” (University of Florida Research Foundation, Inc., priority 1995, dated 1996).
Like-named read-outs stand apart in the source and are kept apart here.

What was measured:
[1] = tested on: herpes simplex I, KOS strain; test: Inhibition of herpes simplex virus replication in CV-1 cells (plaque assay); assay type: cell-based; conditions: for anti-herpetic activity (in words): herpes simplex I; for % Control, Herpes replication: Compound II 100 μM
[2] = tested on: Murine L1210 leukemia cells; test: L1210 leukemia cell growth inhibition; assay type: cell-based; conditions: for anti-leukemic activity (in words): L1210; for IC50: L1210, 48 hr, read-out: Antileukemic Activity (IC50, 48 hr); for % Control, L1210 growth: Compound II 10 μM
[3] = tested on: vesicular stomatitis virus; test: microbe, parasite or virus in culture; assay type: cell-based
[4] = Iron formation (binding) constant; assay type: physicochemical; conditions: estimated iron binding constant
Excerpt: When the compounds were ranked according to their estimated iron binding constants (Table I), the order generally paralleled both the anti-leukemicand anti-herpetic activities of the compounds. […] Furthermore, the effects of the ligands could be prevented by addition of ferric chloride, supporting the idea that iron chelation is the source of activity.

[5] = Partition between n-octanol and phosphate buffered saline; assay type: physicochemical; conditions: PBS pH 7.40 / n-octanol; for logD at 12 h: pH 7.4, 27° C., read-out: Conc. n-Octanol / Conc. PBS (partition coefficient) (converted)
Procedure: The partition equilibrium values for octanol and phosphate buffered saline were determined for certain of the test compounds. The compounds were added in nitrogen saturated methanol at the same concentration to three acid washed test tubes and the alcohol evaporated leaving a thin film of compounds coating the interior of the tube. Next, 5 ml each of degassed phosphate buffered saline (pH 7.4) and n-octanol were added. The tubes were sealed with Teflon caps under argon and rotated at 6 rpm at 27° C. for 12 hours. […] Absorbance values were compared to Beer's Lambert's plots generated for each compound.

Plasmodium falciparum = test: In vitro growth of Plasmodium falciparum (candle jar technique); assay type: cell-based
Procedure: The anti-malarial activity of the compounds listed in Table IV were determined using the method of Scheibel et al, Mol. Pharmacol., 20, pp. 218-223 (1981).
In this study, Plasmodium falciparum were grown in petri dishes using the conventional candle jar technique (Jensen, J. B., and W. Trager. Plasmodium falciparum in culture; use of outdated erythrocytes and description of the candle jar method. J. Parasitol. Vol. 63, pp. 883-886 (1977)). Parasites were grown for 24 hours in 1.5 ml petri dishes in a candle jar before exposure to the chelators of interest. The Plasmodium falciparum were next exposed to various concentrations of the ligands, and ED50 values determined after two and three days of exposure.

[6] = prior art statement; cited from earlier work
CV-1 monkey kidney cells = test: Toxicity to resting monkey kidney cell monolayers; assay type: cell-based; conditions: 100 μM, 24 hours
L1210 cells = conditions: Porter et al, read-out: 50% growth-inhibitory dose; cited from earlier work
[7] = tested on: herpes virus (same herpes strain); conditions: vero monkey kidney cell line, DeClercq, read-out: IC50 anti-herpetic; cited from earlier work
[8] = CV-1, read-out: Antiviral Activity Herpes simplex I (IC50)
[9] = Vesicular stomatitis virus, CV-1, read-out: Antiviral Activity Vesicular stomatitis (IC50)
[10] = CV-1 cells, read-out: Antiviral Activity Herpes simplex I (IC50)
[11] = 48 h, exposure for 2 days, read-out: Concentration required to reduce in vitro growth of P. falciparum 50% (ED50), Day 2
[12] = 72 h, exposure for 3 days, read-out: Concentration required to reduce in vitro growth of P. falciparum 50% (ED50), Day 3

Row | Structure (SMILES) | IC50 ([2]; Mus musculus) [µM] | IC50 [3, 9] [µM] | IC50 [1, 10] [µM] | Gt ° (G° transfer) [5] | logD at 12 h [5] | IC50 (Plasmodium falciparum; [11]) [µM] | IC50 (Plasmodium falciparum; [12]) [µM] | other results
1 | NCCCCN(CCCN)Cc1ccccc1 | 4000 | 1000 | – | – | – | – | – | IC50 [1, 8]: 1000 µM; anti-herpetic activity (in words) [1]: virtually inactive; anti-leukemic activity (in words) [2]: virtually inactive; Formation Constant [4]: 0 moles/1
2 | C[C@H]1OC(c2ccccc2O)=N[C@@H]1C(=O)N(CCCCNC(=O)c1cccc(O)c1O)CCCNC(=O)c1cccc(O)c1O (relative stereo) [Parabactin, N-[3-(2,3-dihydroxybenzamido)propyl]-N-[4-(2,3-dihydroxybenzamino)-butyryl]-2-(2-hydroxyphenyl)trans-5-methyl-oxazoline-4-carboxamide] | 2 | – | 0.4 | -2.06 K cal M-I | 1.51 | 2.6 | 2.3 | times more active as an antineoplastic than DHBA ([2]; ratio vs DHBA): 10^3; iron formation constant of 1:1 metal complex [6]: ~10^48 moles/l
3 | C[C@H]1OC(c2cccc(O)c2O)=N[C@@H]1C(=O)NCCCN(CCCNC(=O)c1cccc(O)c1O)C(=O)[C@H]1N=C(c2cccc(O)c2O)O[C@@H]1C (relative stereo) [Vibrobactin, N-[3-(2,3-(dihydrozybenzamido)propyl]-1,3-bis(2,3-dihydroxyphenyl)-trans-5-methyl-2-oxazoline-4-carbonamido]propane] | 2 | – | – | – | – | 4.5 | 1.8 | –
4 | O=C(NCCCCNCCCNC(=O)c1cccc(O)c1O)c1cccc(O)c1O [Compound II, N^1,N^8-bis(2,3-dihydroxybenzoyl)-spermidine] | 7 | 1000 | 32 | -0.04 K cal M-I | -0.0132 | 4.5 | 3.7 | growth of resting cell monolayers after treatment and replacement in drug-free media (CV-1 monkey kidney cells): identical to that of untreated cells; % Control, Herpes replication ([1]; FeCl3 0 μM): 0 % Control; % Control, Herpes replication ([1]; FeCl3 9 μM): 20 % Control; % Control, Herpes replication ([1]; FeCl3 19 μM): 53 % Control; % Control, Herpes replication ([1]; FeCl3 38 μM): 138 % Control; anti-herpetic activity on inclusion of exogenous iron in the incubation media ([1]; ferric chloride added, herpes replication assay): fully attenuated; % Control, L1210 growth ([2]; FeCl3 0 μM): 23 % Control; % Control, L1210 growth ([2]; FeCl3 4 μM): 64 % Control; % Control, L1210 growth ([2]; FeCl3 8 μM): 96 % Control; % Control, L1210 growth ([2]; FeCl3 12 μM): 104 % Control; anti-leukemic activity on inclusion of exogenous iron in the incubation media ([2]; ferric chloride added): fully attenuated; IC50 (L1210 cells): 10 µM
5 | O=C(O)c1cccc(O)c1O [DHBA, 2,3-dihydroxybenzoic acid] | 2800 | 1000 | – | +1.57 K cal M-I | -1.15 | – | – | IC50 [1, 8]: 1000 µM; anti-herpetic activity (in words) [1]: minimal activity; anti-leukemic activity (in words) [2]: minimal activity
6 | Nc1nc(=O)n([C@@H]2O[C@H](CO)[C@@H](O)[C@@H]2F)cc1I [FIAC, 2-fluoro-5-iodo-I-B-D-arabinofuranosylcytosine] | – | – | – | – | – | – | – | IC50 [7]: 0.6 µM
7 | O=C(NCCCCN(CCCNC(=O)c1cccc(O)c1O)C(=O)CCCNC(=O)c1cccc(O)c1O)c1cccc(O)c1O [GABA, N^1,N^8-bis(2,3-dihydroxybenzoyl)-N^4-(4-[2,3-dihydrozybenzamido]-butyryl) spermidine] | 2 | 1000 | 18 | – | – | 5.1 | 4.3 | –
8 | C[C@@H](O)[C@H](N)C(=O)N(CCCCNC(=O)c1cccc(O)c1O)CCCNC(=O)c1cccc(O)c1O [N^1,N^8-bis(2,3-dihydroxybenzoyl)-N^4-threonyl-spermidine] | – | – | 55 | – | – | – | – | IC50 [2]: 14 µM; IC50 ([3]; estimated by methyl cellulose disk overlay assay, read-out: Antiviral Activity Vesicular stomatitis (IC50)): 1000 µM
9 | Nc1nc2c(ncn2COCCO)c(=O)[nH]1 [acyclovir] | – | – | – | – | – | – | – | IC50 [7]: 40 µM
